In patent US7557244B2, “Substituted biphenyl carboxylic acids and derivatives thereof” (Ortho-McNeil Pharmaceutical, Inc., priority 2006, dated 2009):

Columns and labels:
Aβ 42 [1] = test: In vivo Aβ 42 lowering, mouse; conditions: oral dose 30 mg/kg at 4 hr time point
Source text: (§1) To determine whether acute administration of an Aβ42 lowering agent would reduce Aβ42 levels in vivo, non-transgenic rodents, e.g. mice or rats can be used. Alternatively, two to three month old Tg2576 mice expressing APP695 containing the “Swedish” variant can be used or a transgenic mouse model developed by Dr. Fred Van Leuven (K. U. Leuven, Belgium) and co-workers, with neuron-specific expression of a clinical mutant of the human amyloid precursor protein [V717I] (Moechars et al., 1999 J. Biol. Chem. 274, 6483). […] Animals of this age have high levels of Aβ in the brain but no detectable Aβ deposition. Mice treated with the Aβ42 lowering agent will be examined and compared to those untreated or treated with vehicle and brain levels of soluble Aβ42 and total Aβ would be quantitated by standard techniques, for example, using ELISA. Treatment periods may vary from hours to days and will be adjusted based on the results of the Aβ42 lowering once a time course of onset of effect can be established.
A typical protocol for measuring Aβ42 lowering in vivo is shown but it is only one of many variations that could be used to optimize the levels of detectable Aβ. For example, aliquots of compounds can be dissolved in DMSO (volume equal to 1/10th of the final formulation volume), vortexed and further diluted (1:10) with a 10% (w/v) hydroxypropyl β cyclodextrin (HBC, Aldrich, Ref No 33,260-7) solution in PBS, where after they are sonicated for 20 seconds.
Aβ42 lowering agents may be administered as a single oral dose given three to four hours before sacrifice and analysis or alternatively could be given over a course of days and the animals sacrificed three to four hours after the final dose is given.
Blood is collected at sacrifice. The blood collection is performed via a heart puncture during anesthesia with a mixture of Ketalar (Ketamin), Rompun (Xylazin 2%) and Atropin (2:1:1) and collected in EDTA treated collection tubes. Blood is centrifuged at 4000 g for 5 minutes at 4° C. and the plasma recovered for analysis. […]

γ-secretase = test: Screening for γ-secretase-modulating activity, Aβ 42 in SKNBE2 cells carrying APP 695-wild type; type: cell-based; conditions: for EC50: read-out: WTAPP SKNBE2 Aβ 42 EC50
Method: Screening of the Compounds of the Invention for γ-Secretase-Modulating Activity
Screening was carried out using SKNBE2 cells carrying the APP 695-wild type, grown in DMEM/NUT-mix F12 (HAM) provided by Gibco (cat no. 31330-38) containing 5% Serum/Fe supplemented with 1% non-essential amino acids.
Cells were grown to near confluency.
The screening was performed using the assay as described in Citron et al (1997) Nature Medicine 3: 67.
IC50-Values of Selected Compounds of the Invention on the γ-Secretase Activity.

Aβ 42 [2] = test: In vivo Aβ 42 lowering, rat; conditions: oral dose 30 mg/kg at 4 hr time point
Source text: as §1
A typical protocol for measuring Aβ42 lowering in vivo is shown but it is only one of many variations that could be used to optimize the levels of detectable Aβ. […]

Row | SMILES | EC50 (γ-secretase) [nM] | WTAPP SKNBE2 Aβ 42 % Inhibition at 3 μM (γ-secretase) [%] | other results
1 | CC(C)CC(C(=O)O)c1cc(Oc2cc(F)cc(C(F)(F)F)c2)cc(-c2ccc(C(F)(F)F)cc2)c1 (centres unmarked) [Compound 30, 2-[5-(3-Fluoro-5-trifluoromethyl-phenoxy)-4′-trifluoromethyl-biphenyl-3-yl]-4-methyl-pentanoic acid] | 330 | – | Mouse Efficacy % Lowering Aβ 42 (Aβ 42 [1]): 43%
2 | CC(C)CC(C(=O)O)c1cc(Oc2cc(F)cc(C(F)(F)F)c2)cc(-c2ccc(Cl)c(C(F)(F)F)c2)c1 (centres unmarked) [Compound 21, 4-Methyl-2-[4′-chloro-3′-trifluoromethyl-5-(3-fluoro-5-trifluoromethylphenoxy)-biphenyl-3-yl]-pentanoic acid] | 140 | – | Mouse Efficacy % Lowering Aβ 42 (Aβ 42 [1]): 25%
3 | CC(C)C[C@@H](C(=O)O)c1cc(Nc2cc(C(F)(F)F)ccc2C(F)(F)F)cc(-c2ccc(C(F)(F)F)cc2)c1 [Compound 46, (R)2-[5-(2,5-Bis-trifluoromethyl-phenylamino)-4′-trifluoromethyl-biphenyl-3-yl]-4-methyl-pentanoic acid] | 100 | – | Mouse Efficacy % Lowering Aβ 42 (Aβ 42 [1]): 18%; Rat Efficacy % Lowering Aβ 42 (Aβ 42 [2]): 30%
4 | CC(C)CC(C(=O)O)c1cc(Nc2ccc(F)cc2C(F)(F)F)cc(-c2cc(F)cc(C(F)(F)F)c2)c1 (centres unmarked) [Compound 41, 2-[5′-Fluoro-5-(4-fluoro-2-trifluoromethyl-phenylamino)-3′-trifluoromethyl-biphenyl-3-yl]-4-methyl-pentanoic acid] | – | 67 | –
5 | CC(C)CC(C(=O)O)c1cc(Nc2cc(F)cc(C(F)(F)F)c2)cc(-c2ccc(Cl)c(C(F)(F)F)c2)c1 (centres unmarked) [Compound 38, 2-[4′-Chloro-5-(3-fluoro-5-trifluoromethyl-phenylamino)-3′-trifluoromethyl-biphenyl-3-yl]-4-methyl-pentanoic acid] | 110 | – | –
6 | CC(C)CC(C(=O)O)c1cc(Nc2cc(C(F)(F)F)ccc2C(F)(F)F)cc(-c2ccc(C(F)(F)F)cc2)c1 (centres unmarked) [Compound 8, 2-[5-(2,5-Bis-trifluoromethyl-phenylamino)-4′-trifluoromethyl-biphenyl-3-yl]-4-methyl-pentanoic acid] | 200 | – | –
7 | CC(C)CC(C(=O)O)c1cc(Nc2cc(C(F)(F)F)cc(C(F)(F)F)c2)cc(-c2ccc(C(F)(F)F)cc2)c1 (centres unmarked) [Compound 3, 2-[5-(3,5-Bis-trifluoromethyl-phenylamino)-4′-trifluoromethyl-biphenyl-3-yl]-4-methyl-pentanoic acid] | 300 | – | –
8 | CC(C)CC(C(=O)O)c1cc(Oc2ccc(F)cc2)cc(-c2ccc(C(F)(F)F)cc2)c1 (centres unmarked) [Compound 25, 2-[5-(4-Fluoro-phenoxy)-4′-trifluoromethyl-biphenyl-3-yl]-4-methyl-pentanoic acid] | – | 54 | –
9 | CC(C)CC(C(=O)O)c1cc(Oc2cc(F)cc(F)c2)cc(-c2ccc(Cl)c(C(F)(F)F)c2)c1 (centres unmarked) [Compound 23, 4-Methyl-2-[4′-chloro-3′-trifluoromethyl-5-(3,5-difluorophenoxy)-biphenyl-3-yl]-pentanoic acid] | – | 80 | –
10 | CC(C)CC(C)(C(=O)O)c1cc(Nc2ccc(C#N)cc2)cc(-c2ccc(C(F)(F)F)cc2)c1 (centres unmarked) [Compound 14, 2-[5-(4-Cyano-phenylamino)-4′-trifluoromethyl-biphenyl-3-yl]-2,4-dimethyl-pentanoic acid] | – | 17 | –
11 | CC(C)CC(C(=O)O)c1cc(Nc2cc(C(F)(F)F)ccc2C(F)(F)F)cc(-c2cc(C(F)(F)F)cc(C(F)(F)F)c2)c1 (centres unmarked) [Compound 44, 2-[5-(2,5-Bis-trifluoromethyl-phenylamino)-3′,5′-bis-trifluoromethyl-biphenyl-3-yl]4-methyl-pentanoic acid] | 240 | – | –
12 | CC(C)CC(C(=O)O)c1cc(Nc2ccc(Cl)c(C(F)(F)F)c2)cc(-c2ccc(C(F)(F)F)cc2)c1 (centres unmarked) [Compound 12, 2-[5-(4-Chloro-3-trifluoromethyl-phenylamino)-4′-trifluoromethyl-biphenyl-3-yl]-4-methyl-pentanoic acid] | – | 81 | –
13 | CC(C)CC(C(=O)O)c1cc(Oc2cccc(F)c2)cc(-c2ccc(C(F)(F)F)cc2)c1 (centres unmarked) [Compound 26, 2-[5-(3-Fluoro-phenoxy)-4′-trifluoromethyl-biphenyl-3-yl]-4-methyl-pentanoic acid] | – | 58 | –
